The text below walks through data of PubChem BioAssay AID220 (DTP/NCI, 2004).

Values joined by “and” are separate entries in the source; they are usually repeats but may differ in a detail not shown here. Equal entries are not always repeated. Records with an inconclusive call do not appear.

The subject of the test is CD8F1 mice, subcutaneous mammary adenocarcinoma, T/C%. Nature of the test: NCI In Vivo Anticancer Drug Screen. Data for tumor model Mammary Adenocarcinoma CD8F1 (subcutaneous) in CD8F1. To be noted: higher = larger tumour. The method in brief: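 Ratio of treated to vehicle-control outcome, based on either survival or tumor size, in mice bearing transplantable tumors given the test compound.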

Setting [1] is: endpoint: median tumor weight (est.), dose: 25.0 mg/kg/injection, schedule: Q07DX005 (ip), vehicle: saline with Tween-80.
Where [2] appears, read: endpoint: median tumor weight (est.), dose: 50.0 mg/kg/injection, schedule: Q07DX005 (ip), vehicle: saline with Tween-80.
The mark [3] stands for this setting: endpoint: median tumor weight (est.), dose: 200.0 mg/kg/injection, schedule: Q07DX005 (ip), vehicle: saline with Tween-80.
Setting [4] is: endpoint: median tumor weight change, dose: 125.0 mg/kg/injection, schedule: Q01DX001 (ip), vehicle: saline with Tween-80.
Setting [5] is: endpoint: median tumor weight (est.), dose: 3.12 mg/kg/injection, schedule: Q07DX005 (ip), vehicle: saline.
Where [6] appears, read: endpoint: median tumor weight (est.), dose: 6.25 mg/kg/injection, schedule: Q07DX005 (ip), vehicle: saline.
[7] abbreviates: endpoint: median tumor weight (est.), dose: 12.5 mg/kg/injection, schedule: Q07DX005 (ip), vehicle: saline.
Setting [8] is: endpoint: median tumor weight (est.), dose: 25.0 mg/kg/injection, schedule: Q07DX005 (ip), vehicle: saline.
The mark [9] stands for this setting: endpoint: median tumor weight (est.), dose: 100.0 mg/kg/injection, schedule: Q07DX005 (ip), vehicle: saline.
Setting [10] is: endpoint: median tumor weight (est.), dose: 12.5 mg/kg/injection, schedule: Q07DX005 (ip), vehicle: saline with Tween-80.
The mark [11] stands for this setting: endpoint: median tumor weight (est.), dose: 100.0 mg/kg/injection, schedule: Q07DX005 (ip), vehicle: saline with Tween-80.

For the compound `CC[C@H](CC[C@@H](C)C1CC[C@H]2[C@@H]3CC=C4C[C@@H](OP(=O)(N5CC5)N5CC5)CC[C@]4(C)[C@H]3CC[C@]12C)C(C)C` (some centres not stated), the T/C was 77 % of control under setting [1]; 56 % of control and 75 % of control under setting [2]; 72 % of control and 75 % of control under setting [3]; 82 % of control under setting [4]; 41 % of control and 44 % of control (endpoint: median tumor weight change, dose: 1000.0 mg/kg/injection, schedule: Q01DX001 (ip), vehicle: saline with Tween-80); 9 % of control and 14 % of control (endpoint: median tumor weight change, dose: 2000.0 mg/kg/injection, schedule: Q01DX001 (ip), vehicle: saline with Tween-80).

For `ClC1=C(Cl)C(Cl)=C(Cl)C1=Cc1ccccc1`, the T/C (endpoint: median tumor weight change, dose: 31.0 mg/kg/injection, schedule: Q01DX001 (ip), vehicle: saline with Tween-80) was 100 % of control; the T/C (endpoint: median tumor weight change, dose: 62.0 mg/kg/injection, schedule: Q01DX001 (ip), vehicle: saline with Tween-80) was 63 % of control; the T/C (endpoint: median tumor weight change, dose: 150.0 mg/kg/injection, schedule: Q01DX001 (ip), vehicle: saline with Tween-80) was 33 % of control; the T/C (endpoint: median tumor weight change, dose: 300.0 mg/kg/injection, schedule: Q01DX001 (ip), vehicle: saline with Tween-80) is 73 % of control.

On to `Cc1cc2cc3cc(C)c(N)cc3nc2cc1N`, for which the T/C is 59 % of control (endpoint: median tumor weight change, dose: 31.25 mg/kg/injection, schedule: Q01DX001 (ip), vehicle: saline with Tween-80); 72 % of control (endpoint: median tumor weight change, dose: 62.5 mg/kg/injection, schedule: Q01DX001 (ip), vehicle: saline with Tween-80); 42 % of control under setting [4]; 36 % of control (endpoint: median tumor weight change, dose: 250.0 mg/kg/injection, schedule: Q01DX001 (ip), vehicle: saline with Tween-80).

Take `C[CH2][Sn]([CH2]C)([O]S(C)(=O)=O)[O]S(C)(=O)=O`: the T/C (endpoint: median tumor weight change, dose: 3.9 mg/kg/injection, schedule: Q01DX001 (ip), vehicle: saline) is 88 % of control; the T/C (endpoint: median tumor weight change, dose: 7.81 mg/kg/injection, schedule: Q01DX001 (ip), vehicle: saline) was 60 % of control; the T/C (endpoint: median tumor weight change, dose: 15.62 mg/kg/injection, schedule: Q01DX001 (ip), vehicle: saline) is 103 % of control.

Turning to `CNc1nc(N(C)C)nc(N(C)C)n1`, the T/C was 89 % of control under setting [5]; 111 % of control under setting [6]; 75 % of control under setting [7]; 65 % of control (endpoint: median tumor weight (est.), dose: 12.5 mg/kg/injection, schedule: Q07DX005 (ip), vehicle: water); 108 % of control under setting [8]; 94 % of control (endpoint: median tumor weight (est.), dose: 25.0 mg/kg/injection, schedule: Q07DX005 (ip), vehicle: water). Besides, the T/C reads like this: (endpoint: median tumor weight (est.), dose: 50.0 mg/kg/injection, schedule: Q07DX005 (ip), vehicle: saline) 63 % of control; (endpoint: median tumor weight (est.), dose: 50.0 mg/kg/injection, schedule: Q07DX005 (ip), vehicle: water) 13 % of control; (endpoint: median tumor weight (est.), dose: 74.0 mg/kg/injection, schedule: Q07DX005 (ip), vehicle: other) 33 % of control; under setting [9], 48 % of control; (endpoint: median tumor weight (est.), dose: 100.0 mg/kg/injection, schedule: Q07DX005 (ip), vehicle: water) 28 % of control; (endpoint: median tumor weight (est.), dose: 148.0 mg/kg/injection, schedule: Q07DX005 (ip), vehicle: other) 47 % of control. For the same compound, the T/C (endpoint: median tumor weight (est.), dose: 222.0 mg/kg/injection, schedule: Q07DX005 (ip), vehicle: other) was 7 % of control.

Consider `CN(CO)c1nc(N(C)CO)nc(N(C)CO)n1`, for which the T/C (endpoint: median tumor weight (est.), dose: 0.5 mg/kg/injection, schedule: Q07DX005 (ip), vehicle: saline) was 56 % of control; the T/C (endpoint: median tumor weight (est.), dose: 1.0 mg/kg/injection, schedule: Q07DX005 (ip), vehicle: saline) was 78 % of control; the T/C (endpoint: median tumor weight (est.), dose: 2.0 mg/kg/injection, schedule: Q07DX005 (ip), vehicle: saline) was 110 % of control; the T/C (endpoint: median tumor weight (est.), dose: 4.0 mg/kg/injection, schedule: Q07DX005 (ip), vehicle: saline) was 48 % of control; the T/C (endpoint: median tumor weight (est.), dose: 6.25 mg/kg/injection, schedule: Q07DX005 (ip), vehicle: saline with Tween-80) was 92 % of control; the T/C (endpoint: median tumor weight (est.), dose: 8.0 mg/kg/injection, schedule: Q07DX005 (ip), vehicle: saline) is 46 % of control. Also, the T/C runs as follows: under setting [10], 116 % of control; (endpoint: median tumor weight (est.), dose: 12.5 mg/kg/injection, schedule: Q07DX006 (ip), vehicle: saline) 288 % of control; (endpoint: median tumor weight (est.), dose: 16.0 mg/kg/injection, schedule: Q07DX005 (ip), vehicle: saline) 14 % of control; (endpoint: median tumor weight (est.), dose: 25.0 mg/kg/injection, schedule: Q07DX006 (ip), vehicle: saline) 42 % of control; under setting [2], 94 % of control; (endpoint: median tumor weight (est.), dose: 50.0 mg/kg/injection, schedule: Q07DX006 (ip), vehicle: saline) 40 % of control. The T/C is 25 % of control under setting [11]; 35 % of control (endpoint: median tumor weight (est.), dose: 100.0 mg/kg/injection, schedule: Q07DX006 (ip), vehicle: saline); 31 % of control under setting [3]; 5 % of control (endpoint: median tumor weight (est.), dose: 200.0 mg/kg/injection, schedule: Q07DX006 (ip), vehicle: saline).

For the compound `ClC(Cl)(Cl)C1=NCc2nnn(Cc3ccccc3)c2N1`, the T/C is, setting by setting: under setting [10], 102 % of control; under setting [1], 66 % of control; under setting [11], 191 % of control; under setting [3], 107 % of control; (endpoint: median tumor weight (est.), dose: 400.0 mg/kg/injection, schedule: Q07DX005 (ip), vehicle: saline with Tween-80) 96 % of control.

With `CC(C)CCCCCCCCCCCCC(=O)NCC(=O)NC1C(C)OC(Nc2ncnc3nc[nH]c23)C(O)C1O` (configuration not stated), the T/C is 51 % of control (endpoint: median tumor weight (est.), dose: 8.0 mg/kg/injection, schedule: Q07DX005 (ip), vehicle: distilled water + Tween-80) and 12 % of control (endpoint: median tumor weight (est.), dose: 16.0 mg/kg/injection, schedule: Q07DX005 (ip), vehicle: distilled water + Tween-80).

Regarding `CCC1CN2C(=N1)c1ccccc1-c1cc(Cl)ccc12` (configuration not stated), the T/C under setting [5] is 82 % of control; the T/C (endpoint: median tumor weight (est.), dose: 3.12 mg/kg/injection, schedule: Q07DX005 (ip), vehicle: suspension in saline) was 111 % of control; the T/C under setting [6] was 42 % of control; the T/C under setting [7] was 43 % of control; the T/C (endpoint: median tumor weight (est.), dose: 12.5 mg/kg/injection, schedule: Q07DX005 (ip), vehicle: suspension in saline) was 98 % of control; the T/C under setting [8] was 30 % of control. In addition, the T/C is 64 % of control (endpoint: median tumor weight (est.), dose: 25.0 mg/kg/injection, schedule: Q07DX005 (ip), vehicle: suspension in saline) and 97 % of control (endpoint: median tumor weight (est.), dose: 50.0 mg/kg/injection, schedule: Q07DX005 (ip), vehicle: suspension in saline).

Turning to `CN1CCN(c2ccc([N+](=O)[O-])c3no[n+]([O-])c23)CC1`, the T/C by setting is: (endpoint: median tumor weight (est.), dose: 5.0 mg/kg/injection, schedule: Q07DX005 (ip), vehicle: saline with Tween-80) 95 % of control; (endpoint: median tumor weight (est.), dose: 10.0 mg/kg/injection, schedule: Q07DX005 (ip), vehicle: saline with Tween-80) 115 % of control; (endpoint: median tumor weight (est.), dose: 20.0 mg/kg/injection, schedule: Q07DX005 (ip), vehicle: saline with Tween-80) 75 % of control.

As to `C[N+](C)(C)c1ncnc2nc[nH]c12`, the T/C is, setting by setting: under setting [8], 194 % of control; under setting [9], 259 % of control; (endpoint: median tumor weight (est.), dose: 200.0 mg/kg/injection, schedule: Q07DX005 (ip), vehicle: saline) 186 % of control.
